Read-outs that look alike come from different tables or passages of the source.
Key:
[1] = test system: A20 cells phagocytosed by DCs; assay: Phagocytosis assay of A20 by DCs; format: cell-based, murine; details: A20 treated 48 h, co-incubated with DCs 1:1 for 2 h
Description: A20 phagocytosis was quantified using A20 cells labeled with CellTrace Violet (Invitrogen, Carlsbad, Calif.). Labeled A20 were left untreated or treated with Dox MPs for 48 h (3 wells per group) at various concentrations. Controls included soluble Dox (at the same concentrations) and blank MPs (at equivalent weights). Treated A20 were washed and co-incubated with DCs at a 1:1 ratio for 2 h, stained with anti-CD11c-APC-Cy7 (BD), and analyzed by flow cytometry. The percentage of double-positive cells (CD11c and CellTrace Violet) was determined.

[2] = test system: bone-marrow-derived DCs; assay: MTS viability assay, DCs (Example 2); format: cell-based, BALB/c mice; details: 24 h; 1.125 μg/mL Dox; FIG. 8B
Description: To generate murine bone-marrow-derived DCs, bone marrow cells were flushed from tibias and femurs of BALB/c mice, and mononuclear cells isolated using Ficoll gradient separation (Fico/Lite-LM, Atlanta Biologicals, Flowery Branch, Ga.). Cells were cultured in medium supplemented with 20 ng/mL each GM-CSF and IL4 (PeproTech, Rocky Hill, N.J.) for 7 days. Non-adherent cells were harvested. Cells were >70% DCs as determined by CD11c staining.
(§1) The MTS assay for viability was used to determine the cytotoxic activity of Dox MPs against A20 and DCs (Promega, Madison, Wis.). Briefly, 5×10^3 A20 cells or DCs were incubated with Dox MPs (8 μg/mg) for 24, 48 or 72 h (4 wells per group) at a range of Dox concentrations. Blank MPs were used as negative controls. MTS was added for 4 h at 37° C. Following centrifugation, 90 μl of supernatant was removed. Absorbance was read at 490 nm using a Thermomax Microplate Reader (Molecular Devices, Sunnyvale, Calif.).

[3] = test system: A20 cells; assay: MTS viability assay, A20 (Example 2); format: cell-based, murine
Description: as §1

[4] = lymphoma patients; 30 mg/m^2 Dox; cited from earlier work
[5] = test system: A20 cells; assay: MTS viability assay, A20 (Example 1); format: cell-based, murine; details: Mus musculus, 4.5 μg/mL Dox, MPs 4:1 loading, read-out: viable A20
Description: The A20 cell line (a BALB/c B cell lymphoma) and the EL4 cell line (a C57BL/6 T cell lymphoma) were purchased from ATCC (Manassas, Va.). Tumor cells were cultured in RPMI-1640 medium (Gibco, Carlsbad, Calif.) supplemented with 10% heat-inactivated FCS (HyClone, Logan, Utah), 100 U/mL penicillin, 100 μg/mL streptomycin, and 50 μM 2-ME (All from Gibco), as complete medium.
To determine the cytotoxic activity of MPs against A20 and EL4, the 3-(4,5 dimethylthiazol-2-yl)-5-(3-carboxymethoxyphenyl-2-(4-sulfophenyl)-2H-tetrazolium (MTS) assay for viability was conducted using CellTiter 96® AQueous Non-Radioactive Cell Proliferation Assay (Promega, Madison, Wis.). Five thousand A20 and EL4 cells were separately incubated with soluble Dox or Dox/CpG MPs (4:1 loading) in 96-well plates for 24, 48, and 72 h (four wells per group) at a final Dox concentration of 4.5 μg/mL. Media or blank MPs at equivalent weights were used as negative controls. The MTS/PMS reagent was then added for 4 h at 37° C. […] Absorbance was read at 490 nm using Thermomax Microplate Reader (Molecular Devices, Sunnyvale, Calif.). […] Viability was assessed as before.
Percent survival was expressed as the ratio of absorbance of treated cells relative to that of untreated cells in media group (after subtracting the absorbance of the blank from each) multiplied by 100. […]

Question: Which results are given for `COc1cccc2c1C(=O)c1c(O)c3c(c(O)c1C2=O)C[C@@](O)(C(=O)CO)C[C@@H]3O[C@H]1C[C@H](N)[C@H](O)[C@H](C)O1` [soluble Dox, Doxorubicin]?
Answer: phagocytosis of A20 tumor cells by DCs [1]: enhanced phagocytosis of A20 cells; survival of DCs [2]: 19%; survival of A20 ([3]; 24 h, 1.125 μg/mL Dox, FIG. 8B comparison with DCs): 26%; viability at 0.5625 µg/mL ([3]; Mus musculus, A20, Day 1 (24 h), 0.5625 μg/mL Dox, FIG. 8A): 87%; viability at 1.125 µg/mL ([3]; Mus musculus, A20, Day 1 (24 h), 1.125 μg/mL Dox, FIG. 8A): 46%; viability at 1.125 µg/mL ([3]; Mus musculus, A20, Day 2 (48 h), 1.125 μg/mL Dox): 5%; peak plasma concentration [4]: 278 ng/mL; viability at 4.5 µg/mL ([5]; A20, 24 h, day 1): 26%; viability at 4.5 µg/mL ([5]; A20, 48 h, day 2): 4%
